Patent publication US11377418B2, “Compounds and methods for treating influenza” (Macau University of Science and Technology, priority 2020, dated 2022)
“Also recorded” adds a separate entry of the source. Read-outs that look alike come from different tables or passages of the source.

Tests used:
[1] = test system: influenza virus; assay: NF-κB signalling inhibition, effect on influenza virus titers (in vitro and in vivo)
[2] = test system: influenza A H1N1 (A/PR/8/34 virus); assay: cytopathic effect (CPE) inhibition assay in MDCK cells; type: cell-based
[3] = test system: NF-κB activation; assay: NF-κB-driven luciferase reporter assay in TNF-α-induced HEK293 cells; type: cell-based, Human; conditions: luciferase activity, 20 ng/mL TNF-α, compound 100, 50, 25 or 12.5 μM, 24 h, FIGS. 1 to 4

Compound	IC50 ([2]; Influenza A virus, MDCK, 48 h)	further results
CC(=O)Oc1ccccc1C(=O)O [acetylsalicyclic acid (ASA), acetylsalicyclic acid]	–	influenza virus titers (in words) [1]: dramatic reduction of influenza virus titers
O=C(N[C@@H](Cc1ccccc1)C(=O)N[C@H](CO)Cc1ccccc1)c1ccc(F)cc1 [Compound 11, 4-fluoro-N—((S)-1-(((S)-1-hydroxy-3-phenylpropan-2-yl)amino)-1-oxo-3-phenylpropan-2-yl)benzamide]	47 µM	–
O=C(N[C@@H](Cc1ccc(F)cc1)C(=O)N[C@H](CO)Cc1ccccc1)c1ccccc1 [Compound 10, N—((S)-3-(4-fluorophenyl)-1-(((S)-1-hydroxy-3-phenylpropan-2-yl)amino)-1-oxopropan-2-yl)benzamide]	< 14.3 µM	inhibition towards NF-κB activation (in words) [3]: potent inhibitory effect; also recorded: strong inhibitory effect; also recorded: excellent inhibitory effects; IC50 [2]: 14.3 µM; anti-influenza virus effect (in words) ([2]; CPE inhibition, MDCK cells, A/PR/8/34 (H1N1)): potent inhibitory effect
CC(=O)OC[C@H](Cc1ccc(F)cc1)NC(=O)[C@H](Cc1ccc(F)cc1)NC(=O)c1ccccc1 [Compound 6, (S)-2-((S)-2-benzamido-3-(4-fluorophenyl)propanamido)-3-(4-fluorophenyl)propyl acetate]	19.2 µM	inhibition towards NF-κB activation (in words) [3]: strongest inhibition effect; also recorded: strong inhibitory effect
O=C(N[C@@H](Cc1ccccc1)C(=O)N[C@H](CO)Cc1ccccc1)c1ccccc1 [Compound 9, N—((S)-1-(((S)-1-hydroxy-3-phenylpropan-2-yl)amino)-1-oxo-3-phenylpropan-2-yl)benzamide, reference compound]	34 µM	–
O=C(N[C@@H](Cc1ccc(F)cc1)C(=O)N[C@H](CO)Cc1ccccc1)c1ccc(F)cc1 [Compound 13]	< 14.3 µM	IC50 [2]: 10.5 µM
CC(=O)OC[C@H](Cc1ccc(F)cc1)NC(=O)[C@H](Cc1ccccc1)NC(=O)c1ccc(F)cc1 [Compound 7, (S)-2-((S)-2-(4-fluorobenzamido)-3-phenylpropanamido)-3-(4-fluorophenyl)propyl acetate]	< 14.3 µM	IC50 [2]: 13.5 µM
CC(=O)OC[C@H](Cc1ccccc1)NC(=O)[C@H](Cc1ccccc1)NC(=O)c1ccc(F)cc1 [Compound 3, (S)-2-((S)-2-(4-fluorobenzamido)-3-phenylpropanamido)-3-phenylpropyl acetate]	42.4 µM	–
O=C(N[C@@H](Cc1ccc(F)cc1)C(=O)N[C@H](CO)Cc1ccc(F)cc1)c1ccccc1 [Compound 14, N—((S)-3-(4-fluorophenyl)-1-(((S)-1-(4-fluorophenyl)-3-hydroxypropan-2-yl)amino)-1-oxopropan-2-yl)benzamide]	19.7 µM	inhibition towards NF-κB activation (in words) [3]: strongest inhibition effect; also recorded: strong inhibitory effect
O=C(N[C@@H](Cc1ccccc1)C(=O)N[C@H](CO)Cc1ccc(F)cc1)c1ccc(F)cc1 [Compound 15, 4-fluoro-N—((S)-1-(((S)-1-(4-fluorophenyl)-3-hydroxypropan-2-yl)amino)-1-oxo-3-phenylpropan-2-yl)benzamide]	38.7 µM	–
CC(=O)OC[C@H](Cc1ccccc1)NC(=O)[C@H](Cc1ccc(F)cc1)NC(=O)c1ccc(F)cc1 [Compound 5, (S)-2-((S)-2-(4-fluorobenzamido)-3-(4-fluorophenyl)propanamido)-3-phenylpropyl acetate]	37.9 µM	–
O=C(N[C@@H](Cc1ccccc1)C(=O)N[C@H](CO)Cc1ccc(F)cc1)c1ccccc1 [Compound 12, N—((S)-1-(((S)-1-(4-fluorophenyl)-3-hydroxypropan-2-yl)amino)-1-oxo-3-phenylpropan-2-yl)benzamide]	17.4 µM	–
CC(=O)OC[C@H](Cc1ccc(F)cc1)NC(=O)[C@H](Cc1ccccc1)NC(=O)c1ccccc1 [Compound 4, (S)-2-((S)-2-benzamido-3-phenylpropanamido)-3-(4-fluorophenyl)propyl acetate]	29.6 µM	–
CC(C)(C)c1ccc(S(=O)(=O)/C=C/C#N)cc1 [Compound 11-7085]	–	influenza virus titers (in words) [1]: dramatic reduction of influenza virus titers
CC(=O)OC[C@H](Cc1ccccc1)NC(=O)[C@H](Cc1ccccc1)NC(=O)c1ccccc1 [Compound 1, (S)-2-((S)-2-benzamido-3-phenylpropanamido)-3-phenylpropyl acetate, reference compound]	74.3 µM	–
